Several values for one entry are separate records, joined by “and”; a condition that tells them apart may be missing. Identical values can stand only once.
Tests used:
[1] = tested on: PBMC from allergic donors; assay: IL-5 ELISPOT with extract-stimulated short-term lines; type: cell-based, human; details: positive donor/peptide response
Procedure: (§1) Spots were counted by computer-assisted image analysis (Zeiss, KS-ELISPOT reader, Munich, Germany).
(§2) Each assay was performed in triplicate. The level of statistical significance was determined with a Student's t-test using the mean of triplicate values of the response against relevant pools or individual peptides versus the response against the DMSO control.

[2] = tested on: PBMC from allergic donors; assay: Dual ELISPOT, total IL-5 and IFN-γ response (SFC); type: cell-based, human; details: sum of IFNg and IL-5
Procedure: as §1, §2

Substance | Response (SFC/10^6) IL-5 ([1]; one donor per table line) | Response (SFC/10^6) Total ([2]; one donor per table line) | Response (SFC/10^6) IL-5 ([1]; each table line is one donor) | Response (SFC/10^6) Total ([2]; each table line is one donor)
3324.0348 (RAVESYLLAHSDAYN) | 293 SFC/10^6 | 293 SFC/10^6 |  | 
3324.0349 (TSVIPAARLFKAFFL) | 427 SFC/10^6 | 427 SFC/10^6 |  | 
3324.0350 (DHTNFKYSYSVIEGG) | 413 SFC/10^6 | 413 SFC/10^6 |  | 
3324.0351 (YETETTSVIPAARLF) | 403 SFC/10^6 | 403 SFC/10^6 |  | 
3324.0354 (GIKYMVIQGEAGAVI) | 350 SFC/10^6 | 350 SFC/10^6 |  | 
3324.0355 (DGSVWAQSSSFPQFK) | 1953 SFC/10^6 | 1953 SFC/10^6 |  | 
3324.0356 (GLHLGGIKYMVIQGE) | 440 SFC/10^6 | 440 SFC/10^6 |  | 
3324.0364 (LSRALNLLGLETDLS) | 167 SFC/10^6 | 167 SFC/10^6 |  | 
3324.0522 (IIFSKNLNIKLNMPL) | 863 SFC/10^6 | 863 SFC/10^6 |  | 
3324.0525 (DKSMKVTVAFNQFGP) | 323 SFC/10^6 | 323 SFC/10^6 |  | 
3324.0529 (MAAVAFLALQLIVMA) | 283 SFC/10^6 | 283 SFC/10^6 |  | 
3324.0605 (HFFNHHKVMLLGHDD) | 992 SFC/10^6 | 992 SFC/10^6 |  | 
3324.0612 (TISNNHFFNHHKVML) | 542 SFC/10^6 | 542 SFC/10^6 |  | 
3324.0619 (GPCLFMRKVSHVILH) | 687 SFC/10^6 | 687 SFC/10^6 |  | 
3324.0621 (MRKVSHVILHGLHIH) | 642 SFC/10^6 | 642 SFC/10^6 |  | 
3324.0622 (DKSMKVTVAFNQFGP) | 102 SFC/10^6 | 102 SFC/10^6 |  | 
3324.0827 (DNGYGYFAANIDLMM) | 53 SFC/10^6 | 53 SFC/10^6 |  | 
3324.0835 (QTHSAIAVIIGIKDL) | 317 SFC/10^6 | 317 SFC/10^6 |  | 
3324.0838 (LESVKYVQSNGGAIN) | 467 SFC/10^6 | 467 SFC/10^6 |  | 
3324.0839 (ARKNFLESVKYVQSN) | 487 SFC/10^6 | 487 SFC/10^6 |  | 
3324.0940 (QQYDIKYTWNVPKIA) | 1333 SFC/10^6 | 1333 SFC/10^6 |  | 
3324.0960 (SELRRVDIAVVSRKE) | 120 SFC/10^6 | 120 SFC/10^6 |  | 
3324.0964 (GGEKISVAKIFAHEK) | 137 SFC/10^6 | 137 SFC/10^6 |  | 
3324.0966 (EYWILTAAHCVAGQT) | 203 SFC/10^6 | 203 SFC/10^6 |  | 
3324.0967 (IDNDIALIKLKSPMK) | 187 SFC/10^6 | 187 SFC/10^6 |  | 
3324.0968 (IRYNSLKHSLGGEKI) | 137 SFC/10^6 | 137 SFC/10^6 |  | 

Substance | Response (SFC/10^6) IL-5 ([1]; one donor per table line) | Response (SFC/10^6) Total ([2]; one donor per table line) | Response (SFC/10^6) IL-5 ([1]; each table line is one donor) | Response (SFC/10^6) Total ([2]; each table line is one donor)
3324.0969 (TLANPILPASPNATI) | 167 SFC/10^6 | 167 SFC/10^6 |  | 
3324.0970 (EFDAFVAYHIGARIV) | 123 SFC/10^6 and 763 SFC/10^6 | 123 SFC/10^6 and 763 SFC/10^6 |  | 
3324.0972 (LKAATAFMLAWNYGV) | 757 SFC/10^6 | 757 SFC/10^6 |  | 
3324.0973 (FEGRLLKAATAFMLA) | 113 SFC/10^6 and 953 SFC/10^6 | 113 SFC/10^6 and 953 SFC/10^6 |  | 
3324.0979 (PDDLRSIYSRLHNLN) | 177 SFC/10^6 | 177 SFC/10^6 |  | 
3324.0988 (RIYVDIVLNHMTGAQ) | 117 SFC/10^6 | 117 SFC/10^6 |  | 
3324.0989 (SIYSRLHNLNKEFFP) | 117 SFC/10^6 | 117 SFC/10^6 |  | 
3324.0991 (PRVMSSYFWNQIIKD) | 152 SFC/10^6 | 152 SFC/10^6 |  | 
3324.0992 (DALVMIDSHDLRVGH) | 290 SFC/10^6 | 290 SFC/10^6 |  | 
3324.0993 (VKFRMIAGQEPVHNW) | 92 SFC/10^6 | 92 SFC/10^6 |  | 
3324.0997 (GELALFYLQEQINHF) | 1113 SFC/10^6 | 1113 SFC/10^6 |  | 
3324.0998 (FDFLLMERIHEQIKK) | 143 SFC/10^6 | 143 SFC/10^6 |  | 
3324.1001 (RKDLDIFEQYNLEMA) | 117 SFC/10^6 | 117 SFC/10^6 |  | 
3324.1036 (TLPTILQIASVTKMS) | 120 SFC/10^6 | 120 SFC/10^6 |  | 
3324.1040 (TIYSNVANLRNWIIS) | 297 SFC/10^6 | 297 SFC/10^6 |  | 
3324.1043 (SNVANLRNWIISNTV) | 177 SFC/10^6 | 177 SFC/10^6 |  | 
3324.1102 (DTCRARFITKLSEFI) | 67 SFC/10^6 | 67 SFC/10^6 |  | 
3324.1105 (LSEFITGASVRLQCR) | 73 SFC/10^6 | 73 SFC/10^6 |  | 
3324.1129 (ELADILRSLGSDVGE) | 380 SFC/10^6 | 380 SFC/10^6 |  | 
3324.1130 (LISVEEFQTMMTSEM) | 153 SFC/10^6 | 153 SFC/10^6 |  | 
3324.1131 (GYVSLQEFVDLNNKG) | 80 SFC/10^6 and 420 SFC/10^6 | 80 SFC/10^6 and 420 SFC/10^6 |  | 
3324.1134 (VALFAVFLGSAHGIA) | 208 SFC/10^6 | 208 SFC/10^6 |  | 
3324.1137 (KQQGIRYANPIAFFR) | 123 SFC/10^6 | 123 SFC/10^6 |  | 
3324.1170 (FLAVALVAGPAASYA) |  |  | 63 SFC/10^6 | 63 SFC/10^6
3324.1178 (EVKYTVSETALKKAV) |  |  | 333 SFC/10^6 | 333 SFC/10^6
3324.1179 (FTVFENTFNNAIKVS) |  |  | 87 SFC/10^6 | 87 SFC/10^6

Substance | Response (SFC/10^6) IL-5 ([1]; one donor per table line) | Response (SFC/10^6) Total ([2]; one donor per table line) | Response (SFC/10^6) IL-5 ([1]; each table line is one donor) | Response (SFC/10^6) Total ([2]; each table line is one donor)
3324.1181 (VDAAYRTAATAANAA) |  |  | 383 SFC/10^6 | 383 SFC/10^6
3324.1183 (LKKAVTAMSEAEKEA) |  |  | 128 SFC/10^6 | 128 SFC/10^6
3324.1186 (TNKAFVEGLASGYAD) |  |  | 287 SFC/10^6 | 287 SFC/10^6
3324.1191 (DKFTVFESAFNKALN) |  |  | 97 SFC/10^6 | 97 SFC/10^6
3324.1196 (AALTKAITAMTQAQK) |  |  | 998 SFC/10^6 | 998 SFC/10^6
3324.1547 (KYMVIQGEPGAVIRG) | 63 SFC/10^6 | 63 SFC/10^6 |  | 
3324.1549 (SSSFPQFKSEEITNI) | 77 SFC/10^6 | 77 SFC/10^6 |  | 
3324.1550 (GVTVKKTNQALIFGI) | 93 SFC/10^6 | 93 SFC/10^6 |  | 
3324.1552 (HSRNLINELSERMAG) |  |  | 118 SFC/10^6 and 190 SFC/10^6 and 57 SFC/10^6 | 118 SFC/10^6 and 190 SFC/10^6 and 57 SFC/10^6
3324.1558 (NYLALLVKYVTGDGD) |  |  | 80 SFC/10^6 | 80 SFC/10^6
3324.1562 (DKFTVFEAAFNNAIK) |  |  | 183 SFC/10^6 | 183 SFC/10^6
3324.1591 (FIFGEARSLYLNTEL) |  |  | 500 SFC/10^6 and 133 SFC/10^6 | 500 SFC/10^6 and 133 SFC/10^6
3324.1593 (FEAARVVFSYCNLSD) |  |  | 363 SFC/10^6 | 363 SFC/10^6
3324.1594 (SDYFVGANLIVSNSA) |  |  | 920 SFC/10^6 | 920 SFC/10^6
3324.1596 (AAEFGTVDSATLIVE) |  |  | 3003 SFC/10^6 | 3003 SFC/10^6
3324.1599 (EKVKIERLHPYITLY) |  |  | 260 SFC/10^6 | 260 SFC/10^6
3324.1600 (EYIEAAKWLLPPPKV) |  |  | 980 SFC/10^6 | 980 SFC/10^6
3324.1601 (GANLIVSNSAPRPDG) |  |  | 147 SFC/10^6 | 147 SFC/10^6
3324.1602 (RTIFFDAYLGTSYVI) |  |  | 433 SFC/10^6 | 433 SFC/10^6
3324.1603 (DAYLGTSYVIVIKEP) |  |  | 290 SFC/10^6 | 290 SFC/10^6
3324.1606 (KIAAEIAIALLFLRD) |  |  | 90 SFC/10^6 | 90 SFC/10^6
3324.1608 (IAIALLFLRDAKPEP) |  |  | 97 SFC/10^6 | 97 SFC/10^6
3324.1609 (SFGIILLQLLTARPP) |  |  | 103 SFC/10^6 | 103 SFC/10^6
3324.1630 (TKLDDEIKSWLAFAA) |  |  | 87 SFC/10^6 | 87 SFC/10^6
3324.1632 (VIAELKAAGASTIQF) |  |  | 313 SFC/10^6 | 313 SFC/10^6
